Reference: patent US20220195461A1, “METHODS AND COMPOSITIONS FOR TRANSGENE EXPRESSION” (priority 2019, published 2022)

Test system: CF (HBE and HTE, dF508/dF508, Passage 0) cells
Assay: LDH activity (toxicity) of AV.TL65 plus proteasome inhibitor versus AAV alone
Assay type: cell-based, human
Conditions: for LDH (toxicity) activity compared to AAV without a proteasome inhibitor: augmenter + AV.TL65-gLuc-mCherry, 4 days after infection (FIG. 1B); for toxicity of the enhancement: augmenter combined with AV.TL65Luciferase-mCherry, ALI HBE cultures; for LDH relative to baseline: passage 0 (P0) cells
Source text: FIGS. 1A and 1B are a series of graphs showing the ratio of luciferase activity in cells treated with AV.TL65+proteasome inhibitor (PI) versus AAV alone (FIG. 1A) and the ratio of LDH activity in cells treated with AV.TL65+PI versus AAV alone (FIG. 1B). […] Relative Luminescence Units in CF HBE treated with AV.TL65 with PI exceeded 200-fold of AV.TL65 without PI. Toxicity of AV.TL65 with PI as measured by LDH activity was mostly below 150% of AV.TL65 without PI.
We have generated a novel AAV vector featuring a capsid that is highly efficient at transducing human airway epithelium in the apical membrane. Specifically, we have used AV.TL65-SP183-CFTRΔR to deliver an R-domain-partially-deleted CFTR minigene and AV.TL65Luciferase-mCherry, a dual reporter vector, to express luciferase and fluorescent mCherry protein. The AV.TL65-SP183-CFTRΔR rAAV vector included a polynucleotide comprising: a 5′ AAV ITR comprising the sequence of SEQ ID NO:15, an F5 enhancer comprising the sequence of SEQ ID NO:14 (which may include a 5′ EcoRI site and a 3′ XhoI site, as in SEQ ID NO:1), a tg83 promoter comprising the sequence of SEQ ID NO:2, a 5′ UTR comprising the sequence of SEQ ID NO:3, a hCFTRΔR minigene comprising the sequence of SEQ ID NO:4, a 3′ UTR comprising the sequence of SEQ ID NO:5, a s-pA comprising the sequence of SEQ ID NO:6, and a 3′ AAV ITR comprising the sequence of SEQ ID NO:16. For example, the packaged polynucleotide may include the sequence of SEQ ID NO:17. […] We have shown that combining AV.TL65Luciferase-mCherry with doxorubicin or idarubicin provides non-toxic enhancement of luciferase expression by more than 600-fold of air-liquid interface (ALI) human bronchial epithelial (HBE) cultures from 5 separate CF (homozygous dF508/dF508 CFTR) and non-CF donors compared to AV.TL65Luciferase-mCherry without proteasome inhibitor. In another experiment, doxorubicin and idarubicin+AV.TL65-gLuc-mCherry improved transduction over AAV without a proteasome inhibitor by over 200-fold (FIG. 1A, dashed line). Doxorubicin added to AV.TL65-gLuc-mCherry but not idarubicin had less than 150% LDH (toxicity) activity compared to AAV without a proteasome inhibitor (FIG. 1B; dashed line). Transduction efficiency gains in passage 0 (PO) cells were well above 200-fold better with doxorubicin and idarubicin with LDH <1.5× baseline for doxorubicin and >1.5× baseline for idarubicin.

| SMILES | LDH (toxicity) activity compared to AAV without a proteasome inhibitor | toxicity of the enhancement | LDH relative to baseline [× baseline] |
| --- | --- | --- | --- |
| COc1cccc2c1C(=O)c1c(O)c3c(c(O)c1C2=O)C[C@@](O)(C(=O)CO)C[C@@H]3O[C@H]1C[C@H](N)[C@H](O)[C@H](C)O1 [doxorubicin] | less than 150% | non-toxic | < 1.5 |
| CC(=O)[C@]1(O)Cc2c(O)c3c(c(O)c2[C@@H](O[C@H]2C[C@H](N)[C@H](O)[C@H](C)O2)C1)C(=O)c1ccccc1C3=O [idarubicin] | ≥ 150% | non-toxic | > 1.5 |
